Measurements as given in US6486179B2, “Use of protein kinase C inhibitors to enhance the clinical efficacy of oncolytic agents and radiation therapy” (Eli Lilly and Company, priority 1996, dated 2002).

Assays:
PKC-β = target: T1, PKC-β (Homo sapiens, UniProt P05771); experiment: Western blot of PKC-β in bryostatin 1 treated U937 cells; assay type: cell-based
T1 construct: endogenous in cells; host or cells: U937 human leukemia cells
Experimental: Human leukemia cells U937 in the amount of 0.5×10^6 were treated with various amount of bryostatin 1 for 24 hours. Subsequently, the cells were solubilized for preparation of protein samples according to a routine procedure. The protein samples from bryostatin treated cells were then used in Western blot analysis with a protein kinase C-β specific antiserum previously described in Ways et al., Cell Growth & Differentiation 1994, 5: 1195-1203. […] In a repeated experiment, similar results were obtained.

[1] = system: Human leukemia cells U937; experiment: Viability of U937 cells after γ-irradiation (propidium iodide exclusion, FACS); assay type: cell-based; conditions: 3 nM bryostatin 1 for 24 hours, then 500 or 1000 rads; viability 72 hours after irradiation; triplicate
Experimental: Human leukemia cells U937 were treated for 24 hours with either 3 nM bryostatin 1 or the control solution, i.e., the vehicle for bryostatin 1. The cells were then irradiated with either 500 or 1000 rads of γ-irradiation. Seventy-two hours after irradiation, cellular viability was examined using propidium iodide exclusion and quantified by FACS analysis as previously described in Ways et al., Cell Growth & Differentiation 1994, 5: 1195-1203. Viability assays were performed in triplicate. […] Similar results were obtained in several repeated experiments.

protein kinase C = conditions: statement in words, cited from earlier work

T1 sequence (P05771 whole entry): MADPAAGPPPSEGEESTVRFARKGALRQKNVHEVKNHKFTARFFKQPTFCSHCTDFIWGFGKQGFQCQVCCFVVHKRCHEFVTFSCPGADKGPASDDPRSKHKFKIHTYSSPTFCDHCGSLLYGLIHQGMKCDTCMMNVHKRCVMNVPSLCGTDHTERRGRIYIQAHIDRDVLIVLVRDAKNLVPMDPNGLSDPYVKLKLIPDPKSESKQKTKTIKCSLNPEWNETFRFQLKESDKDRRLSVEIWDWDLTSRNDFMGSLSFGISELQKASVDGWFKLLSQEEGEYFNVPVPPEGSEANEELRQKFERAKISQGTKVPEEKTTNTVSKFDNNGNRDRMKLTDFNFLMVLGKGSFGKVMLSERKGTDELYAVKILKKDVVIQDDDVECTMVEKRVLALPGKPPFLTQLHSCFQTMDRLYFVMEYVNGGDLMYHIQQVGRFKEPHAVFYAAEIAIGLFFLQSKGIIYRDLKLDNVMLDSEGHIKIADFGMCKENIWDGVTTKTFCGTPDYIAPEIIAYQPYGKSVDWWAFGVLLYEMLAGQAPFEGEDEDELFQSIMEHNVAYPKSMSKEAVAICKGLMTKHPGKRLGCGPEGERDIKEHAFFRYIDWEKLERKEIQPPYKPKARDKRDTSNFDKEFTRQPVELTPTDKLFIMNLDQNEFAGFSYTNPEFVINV

SMILES | time within which bryostatin treatment caused PKC-β activity to decrease (PKC-β; 1 nM bryostatin) | time within which bryostatin treatment caused PKC-β activity to decrease (PKC-β; 10 nM bryostatin) | γ-irradiation-induced apoptosis [1] | isozyme selectivity (protein kinase C; selective to protein kinase C over other kinases) | protein kinase C inhibition (protein kinase C; no value)
CCC/C=C/C=C/C(=O)O[C@H]1/C(=C/C(=O)OC)C[C@H]2C[C@H]([C@@H](C)O)OC(=O)C[C@H](O)C[C@@H]3C[C@H](OC(C)=O)C(C)(C)[C@](O)(C[C@@H]4C/C(=C/C(=O)OC)C[C@H](/C=C/C(C)(C)[C@]1(O)O2)O4)O3 [bryostatin 1] | ≤ 24 h | ≤ 2 h | enhanced |  | 
CN(C)C[C@@H]1CCn2cc(c3ccccc32)C2=C(C(=O)NC2=O)c2cn(c3ccccc23)CCO1.Cl [Example 5g, (S)-3,4-[N, N′-1,1′-((2″-ethoxy)-3′″(O)-4′″-(N,N-dimethylamino)-butane)-bis-(3,3′-indolyl)]-1(H)-pyrrole-2,5-dione Hydrochloride Salt] |  |  |  | selective for the beta-1 and beta-2 isozymes | potent protein kinase C inhibitor
